Four compounds from paper PMC5649189, “Bioactivity Potential of Prunus spinosa L. Flower Extracts: Phytochemical Profiling, Cellular Safety, Pro-inflammatory Enzymes Inhibition and Protective Effects Against Oxidative Stress In Vitro” (Frontiers in Pharmacology, 2017) can be followed below.

The assay has as its target T1, lipoxygenase from soybean (LOX).
T1 construct: gene LOX1.1; such preparations are usually mainly lipoxygenase-1
Nature of the assay: lipoxygenase inhibition assay, 96-well plate reader. It is filed as biochemical, Glycine max. As to conditions: substrate linoleic acid; positive control; μg of standard per mL of the enzyme solution. The source says: lipoxygenase inhibition assay, 96-well plate reader on lipoxygenase from soybean (LOX)

For `C[C@@H]1O[C@@H](OC[C@H]2O[C@@H](Oc3c(-c4ccc(O)c(O)c4)oc4cc(O)cc(O)c4c3=O)[C@H](O)[C@@H](O)[C@@H]2O)[C@H](O)[C@H](O)[C@H]1O` [RT, Quercetin 3-O-(6′′-O-α-L-rhamnopyranosyl)-β-D-glucopyranoside], the “LOX / IC50 (μg/mL)^a” value is 162.70 ± 3.70 µg/mL.
With `O=c1c(O)c(-c2ccc(O)c(O)c2)oc2cc(O)cc(O)c12` [QU, quercetin] the figure was 89.23 ± 2.13 µg/mL; with `O=C(/C=C/c1ccc(O)c(O)c1)O[C@@H]1C[C@](O)(C(=O)O)C[C@@H](O)[C@H]1O` [CHA, 5-O-Caffeoylquinic acid], 166.83 ± 7.15 µg/mL.
With `COc1ccc2c(c1)c(CC(=O)O)c(C)n2C(=O)c1ccc(Cl)cc1` [IND, indomethacin] the figure was 92.60 ± 3.71 µg/mL.
